Reference: patent US5583115A, “Dialkyltiacumicin compounds” (Abbott Laboratories, priority 1995, dated 1996)
In brackets after ≈: the same amount, converted by molar mass.

Columns and labels:
[1] = test system: S. epidermidis; test: MIC agar dilution, aerobic and facultative bacteria; details: Culture # 1666
[2] = test system: B. loescheii; test: MIC agar dilution, anaerobic bacteria; assay type: cell-based; details: Culture # 1767
[3] = test system: Streptococcus agalactiae; test: MIC agar dilution, aerobic and facultative bacteria; details: Culture # 1670
[4] = test system: C. difficile; test: MIC agar dilution, anaerobic bacteria; assay type: cell-based
[5] = test system: P. anaerobius; test: MIC agar dilution, anaerobic bacteria; assay type: cell-based; details: Culture # 1780
[6] = test system: Veillonella parvula; test: MIC agar dilution, anaerobic bacteria; assay type: cell-based; details: Culture # 2479

CCc1c(Cl)c(OC)c(Cl)c(OC)c1C(=O)OC1C(C)OC(OCC2=CC=CCC(O)C(C)=CC(CC)C(OC3OC(C)(C)C(OC(=O)C(C)C)C(O)C3O)C(C)=CC(C)=CCC(C(C)O)OC2=O)C(OC)C1O (stereo not drawn) [Example 2, 3"', 5"'-Di-O-methyltiacumicin B]
MIC [1]: 50 µg/mL (≈ 46 µM) | MIC [2]: > 2 µg/mL | MIC [3]: > 100 µg/mL | MIC ([4]; Culture # 1496): 0.25 µg/mL (≈ 0.23 µM) | MIC ([4]; Culture # 1497): 0.5 µg/mL (≈ 0.46 µM) | MIC ([4]; Culture # 1774): 0.25 µg/mL (≈ 0.23 µM) | MIC ([4]; Culture # 2025): 0.5 µg/mL (≈ 0.46 µM) | MIC ([4]; Culture # 2480): 0.25 µg/mL (≈ 0.23 µM) | MIC ([4]; Culture # 2528): 0.5 µg/mL (≈ 0.46 µM) | MIC ([4]; Culture # 2529): 0.5 µg/mL (≈ 0.46 µM) | MIC [5]: > 2 µg/mL | MIC [6]: > 2 µg/mL
